Source: US7351721B2, “Amino acid derivatives and pharmaceutical composition comprising, as active ingredients, them” (Ono Pharmaceutical Co., Ltd., priority 1999, dated 2008)

Target: T1, N-type calcium channel (Homo sapiens, UniProt Q00975)
T1 construct: endogenous in cells
Assay: Determination of inhibitory activity on N-type calcium channel (Fura-2 fluorescence, KCl depolarization, with nifedipine)
Assay type: cell-based
Conditions: compound at final concentration of 3 μM; depolarized with 80 mM potassium chloride; in presence of nifedipine; read-out: Inhibitory effect on calcium flow (%)
Experimental: Determination of Inhibitory Activity on N-type Calcium Channel
Cell line was differentiated according to the method described in FEBS Letters, 235, 178-182, 1988. The cell was loaded with fluorescent reagent, Fura-2·AM (at the final concentration of 10 μM), at 37° C. for 30 minutes and suspended in Krebs-buffer containing HEPES (25 mM) to obtain the cell suspension. The obtained cell suspension was incubated in the presence or absence of the compounds of the present invention with nifedipine for 5 minutes. The cell was depolarized by adding potassium chloride solution (at the final concentration of 80 mM) thereto and then a fluorescence intensity at the emission wavelength of 500 nm excited by the UV of 340 nm and 380 nm alternately was measured using the intracellular calcium analyzer (Nippon Bunko Co., CAF-110). The inhibitory activity of the compound of the present invention (at the final concentration of 3 μM) on calcium influx into the cell was calculated from the difference in changing the fluorescence intensity at peak (ΔR) according to the following equation.

T1 sequence (Q00975 whole entry): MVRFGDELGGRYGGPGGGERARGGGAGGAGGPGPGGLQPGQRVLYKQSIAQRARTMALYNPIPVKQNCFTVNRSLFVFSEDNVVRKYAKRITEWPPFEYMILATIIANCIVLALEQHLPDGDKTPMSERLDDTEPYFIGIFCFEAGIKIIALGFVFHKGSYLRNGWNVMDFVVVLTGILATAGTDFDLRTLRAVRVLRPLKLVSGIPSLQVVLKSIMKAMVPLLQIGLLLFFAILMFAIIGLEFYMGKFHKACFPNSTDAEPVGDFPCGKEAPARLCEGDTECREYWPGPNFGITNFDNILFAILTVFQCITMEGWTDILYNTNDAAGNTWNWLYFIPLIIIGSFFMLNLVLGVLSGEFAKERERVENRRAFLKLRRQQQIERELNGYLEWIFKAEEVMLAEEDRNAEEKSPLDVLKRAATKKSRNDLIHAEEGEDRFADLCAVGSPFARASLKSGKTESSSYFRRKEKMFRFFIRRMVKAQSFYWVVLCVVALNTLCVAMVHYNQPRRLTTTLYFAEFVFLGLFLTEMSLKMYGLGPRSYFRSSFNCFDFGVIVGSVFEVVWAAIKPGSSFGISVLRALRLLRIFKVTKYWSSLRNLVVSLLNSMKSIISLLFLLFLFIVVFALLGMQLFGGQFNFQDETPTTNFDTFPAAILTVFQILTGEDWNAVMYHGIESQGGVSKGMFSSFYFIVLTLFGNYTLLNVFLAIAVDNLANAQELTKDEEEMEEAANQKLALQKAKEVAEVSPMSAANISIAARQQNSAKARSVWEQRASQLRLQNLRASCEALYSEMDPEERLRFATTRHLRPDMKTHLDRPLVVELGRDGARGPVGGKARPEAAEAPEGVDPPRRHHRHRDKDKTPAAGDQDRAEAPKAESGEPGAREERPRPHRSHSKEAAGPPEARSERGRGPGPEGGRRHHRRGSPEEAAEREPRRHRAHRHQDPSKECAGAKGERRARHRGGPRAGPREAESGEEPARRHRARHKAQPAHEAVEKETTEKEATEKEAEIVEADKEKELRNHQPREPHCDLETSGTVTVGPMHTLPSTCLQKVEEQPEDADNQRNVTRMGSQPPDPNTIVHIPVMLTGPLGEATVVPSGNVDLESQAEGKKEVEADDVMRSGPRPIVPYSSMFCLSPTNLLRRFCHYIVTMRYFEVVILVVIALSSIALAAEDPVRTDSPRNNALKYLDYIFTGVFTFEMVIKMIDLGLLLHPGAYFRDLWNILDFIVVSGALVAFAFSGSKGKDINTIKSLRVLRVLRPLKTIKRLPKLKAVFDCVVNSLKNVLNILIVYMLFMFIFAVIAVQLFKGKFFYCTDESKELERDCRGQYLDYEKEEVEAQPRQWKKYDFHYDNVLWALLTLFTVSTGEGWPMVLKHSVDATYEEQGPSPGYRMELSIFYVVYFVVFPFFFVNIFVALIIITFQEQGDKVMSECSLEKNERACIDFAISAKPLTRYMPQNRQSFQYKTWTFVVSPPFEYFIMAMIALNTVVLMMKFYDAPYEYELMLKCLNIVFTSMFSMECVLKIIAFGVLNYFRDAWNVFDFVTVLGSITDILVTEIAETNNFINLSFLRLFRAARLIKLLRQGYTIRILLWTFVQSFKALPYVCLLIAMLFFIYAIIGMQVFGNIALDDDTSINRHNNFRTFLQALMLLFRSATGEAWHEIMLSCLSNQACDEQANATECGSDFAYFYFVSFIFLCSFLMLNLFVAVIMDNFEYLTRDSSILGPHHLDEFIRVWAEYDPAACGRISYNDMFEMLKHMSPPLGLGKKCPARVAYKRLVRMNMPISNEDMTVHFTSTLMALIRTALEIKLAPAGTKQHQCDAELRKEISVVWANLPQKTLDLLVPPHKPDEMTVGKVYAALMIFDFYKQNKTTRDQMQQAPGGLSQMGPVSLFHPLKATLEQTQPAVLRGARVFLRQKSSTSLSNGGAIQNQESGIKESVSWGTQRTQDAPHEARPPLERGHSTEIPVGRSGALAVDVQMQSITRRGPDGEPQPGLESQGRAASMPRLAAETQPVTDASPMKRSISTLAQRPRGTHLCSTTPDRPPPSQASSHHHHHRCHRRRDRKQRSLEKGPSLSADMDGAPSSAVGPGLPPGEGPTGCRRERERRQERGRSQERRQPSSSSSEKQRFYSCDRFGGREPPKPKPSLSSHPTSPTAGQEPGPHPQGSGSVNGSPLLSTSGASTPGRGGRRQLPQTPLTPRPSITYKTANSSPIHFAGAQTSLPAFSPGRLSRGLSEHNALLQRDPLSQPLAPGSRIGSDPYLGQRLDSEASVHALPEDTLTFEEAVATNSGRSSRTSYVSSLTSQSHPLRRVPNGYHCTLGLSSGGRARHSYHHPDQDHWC

Compound: CC(C)(C)OC(=O)N1CSC[C@H]1C(=O)N[C@@H](CSCC1CCCCC1)C(=O)NC1CCN(Cc2ccccc2)CC1 [compound 2, (2R)-N-(1-benzylpiperidin-4-yl)-3-cyclohexylmethylthio-2-((4R)-3-t-butoxycarbonylthiazolidin-4-ylcarbonylamino)propanamide]
- inhibition at 3 µM: 95%
